Measured values from patent US20100183561A1, “Biological therapeutic compositions and methods thereof” (ARTERIOCYTE MEDICAL SYSTEMS, priority 2008, published 2010).
Where a name gives a salt, the structure may show the parent alone.

Assays:
[1] = Thrombin activation of antibiotic-enriched bovine PRP, visual observation; format: physicochemical; conditions: for Observation of PRP/Platelet Gel: gelling / Observation of PRP/Platelet Gel: precipitation or aggregation: antibiotic ~75 ug/ml final in bovine PRP, 10% CaCl2 solution, ambient conditions; for Effect on activation of PRP and gel formation / properties of PRP: smaller quantities (sufficient for local application) dissolved in CaCl2 solution, bovine PRP
Source text: Study Design: This example evaluated the appearance and characteristics of antibiotics-enriched bovine PRP. There were two variables in this study: 1) choice of antibiotics, and 2) presence/absence of thrombin. Two antibiotics were used to couple PRP in this study: 1) Vancomycin and 2) Cefazolin. Thrombin, a common reagent for activation of fibrinogen in PRP (for use as a gel would sealant), was used to activate platelet gel-antibiotics/PRP mixture formation, and compared to a mixture not activated by thrombin.
Preparation of Bovine PRP: 60 ml of Bovine blood (anti-coagulant added) was processed with the Magellan® system to obtain 6 ml of bovine PRP. Bovince PRP was stored in a refrigerator.
Dissolution of Antibiotics in CaCl2 solution: Initial target dose of antibiotics was based on body weight and was estimated at 1.5 mg/kg body weight per unit of PRP, or 105 mg for a 70 kg adult. 3 ml PRP was prepared from 60 ml Bovine Blood with the Magellan® System, resulting in a 2× standard concentration. 105 mg was dissolved into 3 mL of saline solution. 1 ml each of PRP Vancomycin/saline solution were combined to yield a product approximating standard PRP, containing desired amount of Vancomycin.
Vancomycin: To achieve the revised target dose of 75 ug/ml, 5 mg antibiotic was added per 6 ml 10% w/v CaCl2 solution used to reconstitute thrombin for activation of 6 ml PRP.
5 mg Vancomycin hydrochloride (Acros Organics) was dissolved into 6 ml 10% w/v CaCl2 solution at ambient conditions for a concentration of 833 ug/ml. Agitation was necessary to properly dissolve Vancomycin due to its large grain sizes.
Cefazolin: 5 mg Cefazolin hydrochloride (Alexis) was dissolved into 6 ml 10% w/v CaCl2 solution at ambient conditions for a concentration of 833 ug/ml. Slight agitation was necessary to dissolve Cefazolin.
1 kU of bovine thrombin was dissolved into 1 ml of Antibiotic/10% w/v CaCl2 solution or Vancomycin/10% w/v CaCl2 solution.
Preparation of Cefazolin- or Vancomycin-Coupled PRP: 0.6 ml of the bovine thrombin/Vancomycin/10% w/v CaCl2 solution was added to 6 ml of bovine PRP to obtain 6.6 ml of Vancomycin coupled PRP gel to produce an activated gel with a final concentration of ˜75 ug/ml.
For controls, 0.6 ml of the Vancomycin/10% w/v CaCl2 solution (without thrombin) was added to 6 ml of bovine PRP to obtain 6.6 ml of Vancomycin coupled PRP gel to produce an activated gel with a final concentration of ˜75 ug/ml.
Evaluation of Cefazolin- or Vancomycin-Coupled PRP: After mixing, the antibiotic-enriched PRP with and without thrombin were left on bench top. Visual observation was used to evaluate the appearance and characteristics of the mixture material. This process was conducted under ambient conditions.

[2] = as above; format: physicochemical; conditions: initial dose 1.05 g per unit PRP, 1 ml of 2× concentration bovine PRP + Vancomycin solution, no thrombin, Hydrochloride

Row | Compound | Observation of PRP/Platelet Gel: gelling ([1]; Thrombin: Yes) | Observation of PRP/Platelet Gel: precipitation or aggregation ([1]; Thrombin: Yes) | Effect on activation of PRP and gel formation / properties of PRP [1] | Appearance of PRP combined with antibiotic solution at initial (systemic-order) dose [2] | Appearance of PRP combined with antibiotic solution at initial (systemic-order) dose ([2]; listed as vancomycin) | Observation of PRP/Platelet Gel: precipitation or aggregation ([1]; Thrombin: No)
1 | Cc1nnc(SCC2=C(C(=O)[O-])N3C(=O)[C@@H](NC(=O)Cn4cnnn4)[C@H]3SC2)s1.[Na+] [Cefazolin, Cefazolin Sodium Salt] | Mixture gels immediately within minutes, | no precipitation or aggregation observed. | did not appear to alter the properties PRP | – | – | –
2 | CN[C@H](CC(C)C)C(=O)N[C@H]1C(=O)N[C@@H](CC(N)=O)C(=O)N[C@H]2C(=O)N[C@H]3C(=O)N[C@H](C(=O)N[C@H](C(=O)O)c4cc(O)cc(O)c4-c4cc3ccc4O)[C@H](O)c3ccc(c(Cl)c3)Oc3cc2cc(c3O[C@@H]2O[C@H](CO)[C@@H](O)[C@H](O)[C@H]2O[C@H]2C[C@](C)(N)[C@H](O)[C@H](C)O2)Oc2ccc(cc2Cl)[C@H]1O [Vancomycin, Vancomycin Hydrochloride] | Mixture gels immediately within minutes; | – | did not interfere with or premarturely initiate activation of PRP and gel formation | Immediate aggregation of PRP into a solid | rapid formation of heterogenous solids | white solid precipitates forming upon
